The source of these data is PMC7312458, “The Structural Basis of the Binding of Various Aminopolycarboxylates by the Periplasmic EDTA-Binding Protein EppA from Chelativorans sp. BNC1” (International Journal of Molecular Sciences, 2020).

“And” between values parts separate entries of the source, which are not always exact repeats. Equal entries are not always repeated. Where two headings read alike, the source gives them in different places.

Assay [1] has as its target T1, EppA (Chelativorans sp. BNC1, UniProt Q11H97). The experiment in a line: Isothermal titration calorimetry of wild-type EppA with chelators and metal chelates. It is filed as binding. (In general: ITC needs no label: the signal is the heat of the interaction.)
For another assay, the target named is K470A EppA mutant (Chelativorans sp. BNC1, UniProt Q11H97, K470A). Kind of assay: biochemical. As to the method: (§1) All primers were ordered from Invitrogen (Carlsbad, CA, USA).
Sequence of K470A EppA mutant (Q11H97 27-563, stated change not applied): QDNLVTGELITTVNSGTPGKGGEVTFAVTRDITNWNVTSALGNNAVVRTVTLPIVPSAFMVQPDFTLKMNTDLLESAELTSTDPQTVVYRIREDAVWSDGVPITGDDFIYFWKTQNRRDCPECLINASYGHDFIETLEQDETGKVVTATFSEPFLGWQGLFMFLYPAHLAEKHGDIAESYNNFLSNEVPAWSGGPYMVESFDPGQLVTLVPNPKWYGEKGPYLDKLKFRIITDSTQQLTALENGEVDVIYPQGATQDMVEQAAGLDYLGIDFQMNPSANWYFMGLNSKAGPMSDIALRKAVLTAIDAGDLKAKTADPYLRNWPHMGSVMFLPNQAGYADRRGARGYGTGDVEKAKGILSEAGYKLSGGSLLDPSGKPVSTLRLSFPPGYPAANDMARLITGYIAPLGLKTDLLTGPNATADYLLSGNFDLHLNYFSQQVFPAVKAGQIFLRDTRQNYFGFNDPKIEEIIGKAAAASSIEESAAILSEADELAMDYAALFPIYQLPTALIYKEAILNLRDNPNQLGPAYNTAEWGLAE
(§2) Isothermal calorimetric titrations were performed in a MicroCal iTC200 (Malvern Panalytical Ltd.; Malvern, UK). All titrations were performed at 25 °C and stirred at 750 rpm. […] EppA–ligand binding curves were corrected for heats of dilution by subtracting reference titrations of ligands at the same concentrations into a buffer without EppA. Data were fitted to a single-site model as implemented into the Origin 7 MicroCal Data Analysis software analysis package (Malvern Panalytical Ltd.; Malvern, UK) and then plotted in Excel.

In the next assay the target is R480A EppA mutant (Chelativorans sp. BNC1, UniProt Q11H97, R480A). Kind of assay: biochemical. As to the method: as §1, §2
Sequence of R480A EppA mutant (Q11H97 27-563, stated change not applied): as above
The target of another assay is R56A EppA mutant (Chelativorans sp. BNC1, UniProt Q11H97, R56A). Kind of assay: biochemical. On the procedure:
as §1, §2

The target of another assay is R74A EppA mutant (Chelativorans sp. BNC1, UniProt Q11H97, R74A). The experiment in a line: biochemical. As to the method: as §1, §2
Sequence of R74A EppA mutant (Q11H97 27-563, stated change not applied): as above
Assay [2] concerns the target T1, EppA. To be noted: earlier report; cited from earlier work.
[3] abbreviates: ITC, wild-type EppA, 25 °C, single replicate, n.b. = no binding.
[4] abbreviates: ITC, wild-type EppA, 25 °C, single-site model, single replicate, n.b. = no binding.

Sequence of R56A EppA mutant (Q11H97 27-563, stated change not applied): as above
T1 sequence (Q11H97 entry or part of it): as the sequence (Q11H97 27-563, stated change not applied) above

As to `O=C(O)CN(CCN(CC(=O)O)CC(=O)O)CC(=O)O.[Zn]` [ZnEDTA], on EppA [1] (ITC, wild-type EppA), the “binding by EppA (in words)” value is “did not bind”. Besides, on EppA [1] (setting [3]), the “∆H” value was “n.b” and the “∆S” value is reported as “n.b”. Besides, the Kd entry on EppA [1] (setting [4]) was “n.b”.

For `O=C([O-])CN(CCOCCOCCN(CC(=O)O)CC(=O)O)CC(=O)[O-].[Ca+2]` [CaEGTA], the “binding by EppA (in words)” value on EppA [1] (ITC, wild-type EppA) is given as “not”. Further, on EppA [1] (setting [3]), the “∆H” value is recorded as “n.b” and the “∆S” value was “n.b”. In addition, the Kd entry at EppA [1] (setting [4]) was “n.b”.

On to `O=C(O)CN(CCN(CC(=O)O)CC(=O)O)CC(=O)O.[Tb+3]` [TbEDTA], for which, at EppA [1], the “∆H” value was -0.751 ± 0.069 kcal/mol and the “∆S” value came to 18.1 cal mol^−1 K^−1.

For the molecule “Asp10: decameric polyaspartate (DDDDDDDDDD) [reference compound]”, the “binding by EppA (in words)” value with EppA [1] (ITC, wild-type EppA) is reported as “did not bind”. Besides, in the assay with EppA [1] (setting [3]), the “∆H” value is “n.b” and the “∆S” value is recorded as “n.b”. Also, in the assay with EppA [1] (setting [4]), the Kd result is reported as “n.b. ^c”.

Regarding `O=C(O)CN(CCOCCOCCN(CC(=O)O)CC(=O)O)CC(=O)O.[Sr+2]` [SrEGTA], at EppA [1] (setting [3]), the “∆H” value was 0.794 ± 0.164 kcal/mol and the “∆S” value is 27.1 cal mol^−1 K^−1.

As for `O=C(O)CN(CCN(CC(=O)O)CC(=O)O)CC(=O)O` [EDTA, ethylenediaminetetraacetate], the “∆H” value at EppA [1] was -2.283 kcal/mol and -2.283 ± 0.07 kcal/mol and -2.283 ± 0.070 kcal/mol; at K470A EppA mutant (ITC, K470A mutant, 25 °C), -1.872 kcal/mol and -1.872 ± 0.117 kcal/mol; on R480A EppA mutant (ITC, R480A mutant, 25 °C), -1.138 kcal/mol and -1.138 ± 0.089 kcal/mol; at R56A EppA mutant (ITC, R56A mutant, 25 °C), -1.802 kcal/mol and -1.802 ± 0.147 kcal/mol; on R74A EppA mutant (ITC, R74A mutant, 25 °C), -1.877 kcal/mol and -1.877 ± 0.195 kcal/mol. Also, the “∆S” value on EppA [1] is reported as 29 cal mol^−1 K^−1; at K470A EppA mutant (ITC, K470A mutant, 25 °C), 28.3 cal mol^−1 K^−1; on R480A EppA mutant (ITC, R480A mutant, 25 °C) it was 30 cal mol^−1 K^−1; at R56A EppA mutant (ITC, R56A mutant, 25 °C) it was 25 cal mol^−1 K^−1; at R74A EppA mutant (ITC, R74A mutant, 25 °C) it was 23.9 cal mol^−1 K^−1. Further, the Kd at EppA [1] (Kd, ITC, wild-type EppA, 25 °C, single replicate) stood at 9.52 ± 6.25 nM; at EppA [1] (Kd, ITC, wild-type EppA, 25 °C, single-site model, single replicate, n.b. = no binding), 9.5 ± 6 nM; on K470A EppA mutant it was 27.1 ± 20.2 nM; at R480A EppA mutant, 40.8 ± 26.5 nM; on R56A EppA mutant, 161 ± 272 nM; at R74A EppA mutant, 249 ± 382 nM. Besides, the “reduction in EDTA binding” value on K470A EppA mutant (K470A vs wild-type EppA) amounted to 3 fold; on R480A EppA mutant (R480A vs wild-type EppA) it was 4 fold; at R56A EppA mutant (R56A vs wild-type EppA) it was 17 fold; on R74A EppA mutant (R74A vs wild-type EppA) it was 26 fold. For the same molecule, the “binding by EppA (in words)” value on EppA [2] was “binds”.

Consider `O=C(O)CN(CCOCCOCCN(CC(=O)O)CC(=O)O)CC(=O)O` [EGTA, ethylene glycol-bis(β-aminoethylether)-N,N,N′,N′-tetraacetic acid, reference compound], for which, at EppA [1] (setting [3]), the “∆H” value is -4.340 kcal/mol and -4.34 ± 0.114 kcal/mol; the “∆S” value was 16.40 cal mol^−1 K^−1 and 16.4 cal mol^−1 K^−1.

In the case of `O=C([O-])CN(CCN(CC(=O)O)CC(=O)O)CC(=O)[O-].[Ba+2]` [BaEDTA], on EppA [1] (setting [3]), the “∆H” value was “n.b” and the “∆S” value is given as “n.b”. Besides, the dissociation constant Kd result on EppA [1] (setting [4]) was “n.b”.

As for `O=C(O)CN(CCN(CC(=O)O)CC(=O)O)CC(=O)O.[Eu+3]` [EuEDTA], on EppA [1], the “∆H” value is -3.943 ± 0.105 kcal/mol and the “∆S” value was determined as 7.72 cal mol^−1 K^−1.

As to MnEDTA, the “binding by EppA (in words)” value on EppA [1] (ITC, wild-type EppA) is reported as “did not bind”. In addition, on EppA [1] (setting [3]), the “∆H” value is on record as “n.b” and the “∆S” value was “n.b”. Also, the Kd entry at EppA [1] (setting [4]) is given as “n.b”.

In the case of `O=C([O-])CN(CCN(CC(=O)[O-])CC(=O)[O-])CC(=O)[O-].[Cu+2]` [CuEDTA], on EppA [1] (ITC, wild-type EppA), the “binding by EppA (in words)” value is recorded as “did not bind”. For the same molecule, at EppA [1] (setting [3]), the “∆H” value was “n.b” and the “∆S” value is “n.b”. Further, the Kd entry at EppA [1] (setting [4]) is given as “n.b”.

For `O=C(O)CN(CCN(CC(=O)O)CC(=O)O)CC(=O)O.[Sr+2]` [SrEDTA], on EppA [1], the “∆H” value was -4.392 ± 0.118 kcal/mol and the “∆S” value stood at 27.1 cal mol^−1 K^−1.

Consider `O=C(O)CN(CCN(CC(=O)O)CC(=O)O)CC(=O)O.[Ca+2]` [CaEDTA], for which, at EppA [1], the “binding by EppA (in words)” value was “bound”, the “∆H” value was -2.917 ± 0.038 kcal/mol and the “∆S” value amounted to 16.0 cal mol^−1 K^−1.

`O=C(O)CN(CCN(CC(=O)O)CC(=O)O)CC(=O)O.[Mg+2]` [MgEDTA]: on EppA [1], the “∆H” value is -4.028 ± 0.037 kcal/mol and the “∆S” value is given as 16.2 cal mol^−1 K^−1.

In the case of `O=C([O-])CN(CCN(CC(=O)[O-])CC(=O)[O-])CC(=O)[O-].[Co+2]` [CoEDTA], at EppA [1] (ITC, wild-type EppA), the “binding by EppA (in words)” value was “did not bind”. Moreover, at EppA [1] (setting [3]), the “∆H” value is reported as “n.b” and the “∆S” value is “n.b”. Besides, the Kd result at EppA [1] (setting [4]) is on record as “n.b”.

As for `O=C([O-])CN(CCN(CC(=O)[O-])CC(=O)[O-])CC(=O)[O-].[Fe+3]` [FeEDTA], the “binding by EppA (in words)” value on EppA [1] (ITC, wild-type EppA) was “did not bind”. For the same molecule, at EppA [1] (setting [3]), the “∆H” value was “n.b” and the “∆S” value is “n.b”. For the same molecule, the Kd result at EppA [1] (setting [4]) was “n.b”.

For the molecule `O=C(O)CNCCNCC(=O)O` [EDDA, ethylenediamine-N,N′-diacetate, reference compound], on EppA [1], the “∆H” value is -0.851 ± 0.893 kcal/mol and the “∆S” value came out at 26.7 cal mol^−1 K^−1. Besides, the Kd at EppA [1] (ITC, wild-type EppA, 25 °C, single-site model, single replicate, n.b. = no binding, read-out: Kd) is 588 nM and 340 nM.

In the case of `O=C(O)CN(CCN(CC(=O)O)CC(=O)O)CC(=O)O.[Cd+2]` [CdEDTA], the “binding by EppA (in words)” value on EppA [1] (ITC, wild-type EppA) is on record as “did not bind”. Besides, at EppA [1] (setting [3]), the “∆H” value is -0.555 ± 0.002 kcal/mol and the “∆S” value is on record as 28.1 cal mol^−1 K^−1.

With `O=C([O-])CN(CCN(CC(=O)[O-])CC(=O)[O-])CC(=O)[O-].[Ni+2]` [NiEDTA], the “binding by EppA (in words)” value at EppA [1] (ITC, wild-type EppA) was “did not bind”. On EppA [1] (setting [3]), the “∆H” value is recorded as “n.b” and the “∆S” value is on record as “n.b”. The Kd entry at EppA [1] (setting [4]) is “n.b”.

`O=C(O)CN(CCN(CC(=O)O)CC(=O)O)CC(=O)O.[Cr+3]` [CrEDTA]: at EppA [1], the “∆H” value was -2.573 ± 0.145 kcal/mol and the “∆S” value was 30.5 cal mol^−1 K^−1.

By Kd is commonly meant the concentration at which binding is half-saturated.
